Results reported in patent US20140000476A1, “HYDROPHOBIC AND LIPOPHOBIC COMPOSITION COMPRISING COMPOUNDS HAVING A BISPHOSPHONIC AND THIOL GROUP” (SURFACTIS TECHNOLOGIES, priority 2010, published 2014).

Assay: Contact angle on coated gold
Assay type: physicochemical
Settings: molecule alone at 10^−3M, soaking 30 minutes
Description: Degrease the parts by washing in a solvent (acetone or IPA) under ultrasound for 5 minutes then dry the parts under a stream of hot air.
Deposit • Place the part or parts in a container with an adapted shape • Cover the part or parts with coating solution (thiol, BP or BP/thiol-PFPE mixture), • Incubate between 5 minutes and 360 minutes, • Eliminate the supernatant—remove the part, • The part is drip dried (centrifugation).
Dehydration—Rinsing • The part which received the deposit is placed in an oven at 120° C. for a period ranging from 6 to 15 h (only for rubies and silicon), • The part is brought back to room temperature then immersed in IPA under ultrasound for 2 minutes, • The part is dried under a stream of hot air. […]
The lipophobic effect was evaluated by measuring the contact angles of a test oil having surface tension of 33 mN/m on different surfaces.
According to the deposit procedure described in paragraph 3, the materials were treated by the mixture of the thiol molecule I.3. with the BP molecule II.1. dissolved in IPA. The contact angles were measured before and after treatment of the surface. […]
The properties of thiol and bisphosphonate molecules in isolation were measured on the surfaces of steel and gold-plated substrates using solutions at 10^−3 M and in isopropanol in accordance with the protocol described in example 3 above, with a soaking time of 5 minutes.

## O=C(NCCS)C(F)(F)C(F)(F)C(F)(F)C(F)(F)C(F)(F)C(F)(F)C(F)(F)F [I.5]
Solvent IPA
  contact angle of the gold-plated brass part with the test oil: 67.6 ± 3.6°
Solvent MMCC (Biosane T212)
  contact angle of the gold-plated brass part with the test oil: 49.5 ± 2.5°
